The values below come from patent publication US20260109714A1, “PYRIMIDINE-FUSED RING COMPOUND, AND PREPARATION METHOD THEREFOR AND USE THEREOF” (GENFLEET THERAPEUTICS (SHANGHAI) INC., priority 2022, published 2026).

In one experiment the test system is AGS p-ERK. Briefly: Cell assay for p-ERK (HTRF, Advance ERK phospho-T202/Y204 kit). In kind it is cell-based, human. The conditions noted are these: AGS cells (KRAS G12D), 3 hrs with compound, inhibition of p-ERK level. How it is done:
AGS was purchased from ATCC, Article No.: CRL-1739; F12K was purchased from Gibco, Article No.: 21127-022; FBS was purchased from Gibco, Article No.: 10099-141C; the trypsin (containing EDTA) was purchased from Gibco, Article No.: 25200-072; DMSO was purchased from VWRAMRESCO, Article No.: 0231-500ML; the 96-well cell culture plate was purchased from Corning, Article No.: 3599; the white-bottom opaque 96-well plate was purchased from Cisbio, Article No.: 66PL96025; Advance ERK phospho-T202/Y204 kit was purchased from Cisbio, Article No.: 64AERPEH; the cell counter was purchased from CHEMOMETEC, model: NC-200; the microplate reader was purchased from PerkinElmer, model: Envison.
AGS, an endogenous human gastric adenocarcinoma cell line with KRAS^G12D mutation, was cultured in F12K+10% FBS medium. On the first day of the experiment, cells in logarithmic growth period were digested with trypsin (containing EDTA), collected and counted, and about 20,000 cells/well were inoculated in a 96-well cell culture plate and cultured overnight in an incubator with 5% CO2. 1000× compound stock solutions with gradient concentrations of 3.16 times were prepared with DMSO, and 200-fold diluted to 5× compound stock solutions with the above culture medium. The 5× compound stock solution was added to each cell culture well on the second day after cell inoculation, to give a final concentration of 1× and DMSO content of 0.1%. DMSO was used as experimental control. After adding the compound, the cells were continuously cultured for 3 hrs. Then, the culture medium in the well was removed, and 50 μl/well of cell lysis buffer (from Advanced ERK phospho-T202/Y204 kit, the same hereinafter) was added, and mixed uniformly. The cells were cultured for 30 min. Then 16 μl of the mixture was transferred to a white-bottom opaque 96-well plate, and 16 μl of the cell lysis buffer was added to an additional well and used as a blank. After that, 4 μl of p-ERK HTRF antibody mixed solution (from Advanced ERK Phos Pho-T202/Y204 Kit) was added to each well. After incubation for 4 hrs, the fluorescence value (RLU) of HTRF was read on a microplate reader. The inhibition rate of the compound on p-ERK level was calculated by the formula IR (%)=(RLU of control−RLU of compound)/(RLU of control−RLU of blank)×100%. The compound concentration and the corresponding inhibition rate on p-ERK level in the cells were fitted by using Prism 8 four-parameter method, and the IC50 value was calculated.

The subject of experiment [1] is AsPC-1 human pancreatic cancer cell with KRAS G12D mutation. The experiment can be described thus: Cell proliferation inhibition experiment, 3D CellTiter-Glo, AsPC-1. In kind it is cell-based. To be noted: AsPC-1 cells, 3D spheroid, 5 days. The text has this: (§1) AsPC-1 was purchased from ATCC, Article No.: CRL-1682; AGS was purchased from ATCC, Article No.: CRL-1739; RPMI1640 was purchased from Gibco, Article No.: 11875-093 2235123; F12K was purchased from Gibco, Article No.: 21127-022; FBS was purchased from Gibco, Article No.: 10099-141C; the trypsin (containing EDTA) was purchased from Gibco, Article No.: 25200-072; CellTiter Glo-3D was purchased from Progema, Article No.: G9683; the 384-well spheroid plate was purchased from Corning, Article No.: 3830; the white-bottom opaque 384-well plate was purchased from Corning, Article No.: 3570; the cell counter was purchased from CHEMOMETEC, model: NC-200; the microplate reader was purchased from PerkinElmer, model: Envison;
(§2) AsPC-1, an endogenous human pancreatic cancer cell AsPC-1 with KRAS^G12D mutation, was cultured in RPMI-1640 medium containing 10% FBS. AGS, a human gastric cancer cell line with KRAS^G12D mutation, was cultured in F-12K medium containing 10% FBS. Cells in logarithmic growth period were digested with trypsin (containing EDTA), collected and counted. 800 AsPC-1 cells/well or 400 […] were inoculated in a 384-well spheroid plate, and cultured overnight in an incubator with 5% CO2 to establish a 3D cell model. 1000× compound stock solutions with gradient concentrations of 3.16 times were prepared with DMSO, and 100-fold diluted to 10× compound stock solutions with the culture medium. The 10× compound stock solution was added to each cell culture well on the second day after cell inoculation, to give a final concentration of 1× and DMSO content of 0.1%. DMSO was used as the control, and the culture medium was used as the blank. After the compound was added, the cells were cultured for 5 days. 30 μl CellTiter-Glo working solution was added to each well, and mixed uniformly. The cells were incubated for 30 min, and allowed to stand at room temperature for 30 min. 40 μl of the mixture was transferred to a white-bottom opaque 384-well plate, and the luminescence was read on a microplate reader. The inhibition rate on cell proliferation was calculated by a formula: IR (%)=(RLU of control−RLU of compound)/(RLU of control−RLU of blank)×100%. The gradient concentrations of the compound and the corresponding inhibition rates were fitted by using XLFit four-parameter method, and the IC50 value was calculated. […] The results of some exemplary compounds are shown in Table 2 below (—means not tested).

Experiment [2] concerns AGS human gastric cancer cell line with KRAS G12D mutation. Briefly: Cell proliferation inhibition experiment, 3D CellTiter-Glo, AGS. In kind it is cell-based. To be noted: AGS cells, 3D spheroid, 5 days.
Source text: as §1, §2

For the compound `C#Cc1cccc2cc(N)c(F)c(-c3nc4c5c(nc(OCC6(CN7CCOCC7)CC6)nc5c3F)N3C[C@H]5CC[C@H](N5)[C@H]3[C@H](C)O4)c12` [Z957, 5-ethynyl-3-fluoro-4-((5S,5aS,6S,9R)-1-fluoro-5-methyl-12-((1-(morpholinemethyl)cyclopropyl)methoxy)-5a,6,7,8,9,10-hexahydro-5H-4-oxa-3,10a,11,13,14-pentaaza-6,9-methanonaphtho[1,8-ab]hepten-2-yl)naphthalen-2-amine], the IC50 in the experiment on AGS p-ERK (Homo sapiens) came to 0.97 nM; in experiment [1] (Homo sapiens, ASPC1, 120 h), 6.51 nM; in experiment [2] (Homo sapiens, 120 h), 7.61 nM.

In the case of `C#Cc1cccc2cc(N)cc(-c3nc4c5c(nc(OCC67CC(F)(F)CN6CC=C7C)nc5c3F)N3C[C@H]5CC[C@H](N5)[C@H]3[C@H](C)O4)c12` (stereo partly drawn) [Z748], the IC50 with AGS p-ERK (Homo sapiens) was determined as 4.63 nM; in experiment [1] (Homo sapiens, ASPC1, 120 h), 12.9 nM; in experiment [2] (Homo sapiens, 120 h), 23.1 nM.

As to `C#Cc1c(F)ccc2cccc(-c3nc4c5c(nc(OC[C@@]67CCCN6CCC7=C)nc5c3F)N3C[C@H]5CC[C@H](N5)[C@H]3[C@H](C)O4)c12` [Z638, (5S,5aS,6S,9R)-2-(8-ethynyl-7-fluoronaphthalen-1-yl)-1-fluoro-5-methyl-12-(((S)-1-methylenetetrahydro-1H-pyrrolizin-7a(5H)-yl)methoxy)-5a,6,7,8,9,10-hexahydro-5H-4-oxa-3,10a,11,13,14-pentaaza-6,9-methanonaphtho[1,8-ab]heptene], the IC50 was 7.79 nM with AGS p-ERK, 32 nM in experiment [1] and 19.7 nM in experiment [2].

In the case of `C#Cc1c(F)ccc2cccc(-c3nc4c5c(nc(OC[C@]67C[C@@H](F)CN6CCC7=C)nc5c3F)N3C[C@H]5CC[C@H](N5)[C@H]3[C@H](C)O4)c12` [Z689, (5S,5aS,6S,9R)-2-(8-ethynyl-7-fluoronaphthalen-1-yl)-1-fluoro-12-(((6R,7aR)-6-fluoro-1-methylenetetrahydro-1H-pyrrolizin-7a(5H)-yl)methoxy)-5-methyl-5a,6,7,8,9,10-hexahydro-5H-4-oxa-3,10a,11,13,14-pentaaza-6,9-methanonaphtho[1,8-ab]heptene], the figures for the IC50 (with AGS p-ERK; in experiment [1]; in experiment [2]) were 6.61 nM, 17.4 nM and 19.3 nM, respectively.

`C=C1CCN2CCC[C@]12COc1nc2c3c(nc(-c4cc(N)cc(Cl)c4C(F)(F)F)c(F)c3n1)O[C@@H](C)[C@@H]1[C@@H]3CC[C@H](CN21)N3` [Z963, 3-chloro-5-((5S,5aS,6S,9R)-1-fluoro-5-methyl-12-(((R)-1-methylenetetrahydro-1H-pyrrolizin-7a(5H)-yl)methoxy)-5a,6,7,8,9,10-hexahydro-5H-4-oxa-3,10a,11,13,14-pentaaza-6,9-methanonaphtho[1,8-ab]heptadien-2-yl)-4-(trifluoromethyl) aniline]: the IC50 worked out at 0.39 nM with AGS p-ERK, 1.69 nM in experiment [1] and 0.21 nM in experiment [2].

On to `C#Cc1cccc2cc(N)cc(-c3nc4c5c(nc(OCC67CC(F)(F)CN6CCC7=C)nc5c3F)N3C[C@H]5CC[C@H](N5)[C@H]3[C@H](C)O4)c12` (stereo partly drawn) [Z738], for which the IC50 with AGS p-ERK (Homo sapiens) amounted to 12.7 nM; in experiment [1] (Homo sapiens, ASPC1, 120 h) it was 29.9 nM; in experiment [2] (Homo sapiens, 120 h) it was 44.2 nM.

With `C#Cc1cccc2cc(N)cc(-c3nc4c5c(nc(OC[C@@]67CCCN6CCC7=C(F)F)nc5c3F)N3C[C@H]5CC[C@H](N5)[C@H]3[C@H](C)O4)c12` (single isomer, unassigned) [Z960], the IC50 in the experiment with AGS p-ERK (Homo sapiens) was found to be 0.25 nM; in experiment [1] (Homo sapiens, ASPC1, 120 h), 1.58 nM; in experiment [2] (Homo sapiens, 120 h), 3.96 nM.

For the compound `C#Cc1c(F)ccc2cccc(-c3nc4c5c(nc(OC[C@]67CCCN6CC=C7C)nc5c3F)N3C[C@H]5CC[C@H](N5)[C@H]3[C@H](C)O4)c12` [Z749], the IC50 in the experiment with AGS p-ERK (Homo sapiens) is 1.91 nM; in experiment [1] (Homo sapiens, ASPC1, 120 h), 11.5 nM; in experiment [2] (Homo sapiens, 120 h), 7.13 nM.

In the case of `[2H]C([2H])([2H])[C@@H]1Oc2nc(-c3cc(N)cc4cccc(C#C)c34)c(F)c3nc(OCC4(CN5CC[C@@H](F)C5)CC4)nc(c23)N2C[C@H]3CC[C@H](N3)[C@@H]12` [Z964, 5-ethynyl-4-((5S,5aS,6S,9R)-1-fluoro-12-((1-(((R)-3-fluoropyrrolidin-1-yl)methyl)cyclopropyl)methoxy)-5-(methyl-d3)-5a,6,7,8,9,10-hexahydro-5H-4-oxa-3,10a,11,13,14-pentaaza-6,9-methanonaphtho[1,8-ab]hepten-2-yl)naphthalen-2-amine], the IC50 in the experiment with AGS p-ERK (Homo sapiens) was 0.38 nM; in experiment [1] (Homo sapiens, ASPC1, 120 h), 1.58 nM; in experiment [2] (Homo sapiens, 120 h) it was 0.51 nM.

As for “(5S,5aS,6S,9R)-12-((2,6-dimethyltetrahydro-1H-pyrrolizin-7a(5H)-methoxy)-2-(8-ethynyl-6-fluoronaphthalen-1-yl)-1-fluoro-5-methyl-5a,6,7,8,9,10-hexahydro-5H-4-oxa-3,10a,11,13,14-pentaaza-6,9-methanonaphtho[1,8-ab]heptene [Z551]”, the IC50 with AGS p-ERK was found to be 61 nM; in experiment [1] it was 170 nM; in experiment [2], 45.4 nM.

As to `C#Cc1cccc2cc(N)cc(-c3nc4c5c(nc(OC[C@]67CCCN6CCC7=C(F)F)nc5c3F)N3C[C@H]5CC[C@H](N5)[C@H]3[C@H](C)O4)c12` [Z959, 4-((5S,5aS,6S,9R)-12-(((R)-1-(difluoromethylene)tetrahydro-1H-pyrrolizin-7a(5H)-yl)methoxy)-1-fluoro-5-methyl-5a,6,7,8,9,10-hexahydro-5H-4-oxa-3,10a,11,13,14-pentaaza-6,9-methanonaphtho[1,8-ab]hepten-2-yl)-5-ethynylnaphthalen-2-amine], the IC50 with AGS p-ERK (Homo sapiens) is 1.59 nM; in experiment [1] (Homo sapiens, ASPC1, 120 h), 7.21 nM; in experiment [2] (Homo sapiens, 120 h), 7.27 nM.

For the compound `C#Cc1cccc2cc(N)cc(-c3nc4c5c(nc(OCC(C)C(O)C(F)F)nc5c3F)N3C[C@H]5CC[C@H](N5)[C@H]3[C@H](C)O4)c12` (stereo partly drawn) [Z742], the IC50 in the experiment on AGS p-ERK (Homo sapiens) came to 52 nM; in experiment [1] (Homo sapiens, ASPC1, 120 h), 312 nM; in experiment [2] (Homo sapiens, 120 h) it was 156 nM.

As to `[2H]C([2H])([2H])[C@@H]1Oc2nc(-c3cc(N)cc(Cl)c3C(F)(F)F)c(F)c3nc(OC[C@]45CCCN4CCC5=C)nc(c23)N2C[C@H]3CC[C@H](N3)[C@@H]12` [Z1060, 3-chloro-5-((5S,5aS,6S,9R)-1-fluoro-5-(methyl-d3)-12-(((R)-1-methylenetetrahydro-1H-pyrrolizin-7a(5H)-yl)methoxy)-5a,6,7,8,9,10-hexahydro-5H-4-oxo-3,10a,11,13,14-pentaaza-6,9-methanonaphtho[1,8-ab]hepten-2-yl)-4-(trifluoromethyl) aniline], the IC50 with AGS p-ERK (Homo sapiens) came to 0.72 nM; in experiment [1] (Homo sapiens, ASPC1, 120 h) it was 1.63 nM; in experiment [2] (Homo sapiens, 120 h), 0.19 nM.
